{"source": "ChEMBL document CHEMBL1221248", "about": "“Synthesis and SAR of (piperazin-1-yl-phenyl)-arylsulfonamides: a novel series of atypical antipsychotic agents” (Bioorg Med Chem Lett, 2010)", "target": "5-hydroxytryptamine receptor 2C (Homo sapiens) (UniProt P28335)", "sequence (P28335 whole entry, looked up)": "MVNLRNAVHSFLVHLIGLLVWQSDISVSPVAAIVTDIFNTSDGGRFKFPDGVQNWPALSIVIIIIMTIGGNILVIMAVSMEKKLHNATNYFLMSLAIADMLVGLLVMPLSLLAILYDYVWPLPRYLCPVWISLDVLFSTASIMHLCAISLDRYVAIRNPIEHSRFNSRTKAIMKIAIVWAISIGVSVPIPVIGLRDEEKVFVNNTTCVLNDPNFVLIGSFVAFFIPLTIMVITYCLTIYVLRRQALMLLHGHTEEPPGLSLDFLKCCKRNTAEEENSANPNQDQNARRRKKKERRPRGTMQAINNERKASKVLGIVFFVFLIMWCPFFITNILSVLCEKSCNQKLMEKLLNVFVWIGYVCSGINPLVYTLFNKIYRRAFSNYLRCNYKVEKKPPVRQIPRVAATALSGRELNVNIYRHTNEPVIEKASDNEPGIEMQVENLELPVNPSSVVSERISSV", "assay": "Antagonist activity at human 5HT2C receptor expressed in CHO cells assessed as inhibition of 5-HT-stimulated [35S]GTPgamma binding", "data": [{"molecule": "CC(C)N(c1cccc(N2CCN(C)CC2)c1)S(=O)(=O)c1ccc2ccccc2c1", "values": [{"measurement": "inhibition", "value": "Dose-dependent effect"}]}]}
